Experimental data taken from patent US20240122885A1, “Endometriosis-Related Methods and Compositions” (The Regents of the University of California, priority 2021, published 2024).

Test system: rat model of endometriosis
Assay: behavioral assessment of vaginal nociception (escape response) in rat model of endometriosis
Format: in vivo
Settings: 30 mg/kg/day p.o.; for Post-Treatment period (PT) median escape response: four weeks of treatment, proestrus
From the text: Baseline vaginal nociception was first assessed in rats. Then, endometriosis was induced when rats were four months of age by suturing uterine fragments within the peritoneal cavity to generate ectopic endometrium (lesions). […] In this model, four (2 mm×2 mm) pieces of uterine horn are auto transplanted onto cascading mesenteric arteries within the pelvic cavity of rats that are hormonally and immunologically intact. The present model avoids ovariectomy followed by estradiol supplementation that is common in most mouse models which eliminates the natural estradiol variations within the estrous cycle and the ability to assess drug treatment effects on fertility.
Behavioral assessment of vaginal nociception: Volumes of water (0.01, 0.15, 0.30, 0.40, 0.55, 0.70, 0.80, and 0.90 mL) were delivered via a vaginal balloon to the rat's vaginal canal. When the previously trained rat detects this stimulus as noxious, she will poke her head into a tube to break an infrared (IR) beam. This beam break terminates the stimulus (balloon deflates). During each testing session, eight different distention volumes were delivered randomly three times each ˜60 seconds apart. The maximum latency of 15 seconds is considered to be no response. The experimenter was blinded to the volumes being delivered.
Data analyses of behavioral results: Percent escape responses as a function of distention volume were measured in each session. For each rat, the escape response percentages as a function of distention volume from all sessions for each testing period were determined. The median escape response percentage and interquartile range (IQR) for all rats from each testing period was determined.
Statistical analyses were performed using Mann Whitney U test, and p-values were corrected using the Bonferroni correction method.

CC(C(=O)O)c1cccc(Oc2ccccc2)c1 (stereo not shown) [fenoprofen]
escape responses between the baseline period and the post-treatment period (any volume of water delivered, Mann Whitney U test, Bonferroni-corrected threshold 0.05): No statistically significant difference
Post-Treatment period (PT) median escape response (volume 0.01 mL): 0%
Post-Treatment period (PT) median escape response (volume 0.15 mL): 0%
Post-Treatment period (PT) median escape response (volume 0.3 mL): 0%
Post-Treatment period (PT) median escape response (volume 0.4 mL): 16.65%
Post-Treatment period (PT) median escape response (volume 0.55 mL): 33.3%
Post-Treatment period (PT) median escape response (volume 0.7 mL): 66.6%
Post-Treatment period (PT) median escape response (volume 0.8 mL): 100%
Post-Treatment period (PT) median escape response (volume 0.9 mL): 100%
escape responses during the post-treatment period compared to the post-endo surgery period (volumes of 0.15, 0.3, 0.4, 0.55, 0.7 and 0.8 mL, Mann Whitney U test, Bonferroni-corrected threshold 0.05): significantly decreased
